Laboratory results from patent US5990137A, “Method of inhibiting NADPH oxidase” (Idun Pharmaceuticals, Inc., priority 1998, dated 1999).

What was measured:
[1] = tested on: isolated neutrophils (opsonized zymosan-stimulated oxidative burst); assay: Measurement of chemiluminescence of isolated neutrophils (neutrophil burst, Lucigenin); type: cell-based; details: for IC50 / inhibition at 50 µM: Neutrophil; for inhibition at 50 µM: percent inhibition at 50 μM, single concentration, read-out: Neutrophil Burst Screen Value (% @ 50 μM)
Protocol: Whole blood (150 ml) was anticoagulated with Acid Citrate Dextrose (ACD) using a ratio of 1:5 ACD to blood.
All steps are to be performed using polypropylene plastic ware.
a. Whole blood (60 ml) was added to each of three 100 ml polypropylene graduated cylinders containing 30 ml of […]. The cylinders were covered securely with Parafilm. The blood was allowed to sediment for approximately 1 hour at room temperature.
b. The turbid straw-colored layer was harvested from the top of the cylinders into 50 ml conical polypropylene tubes. The white blood cells were pelleted by centrifugation at 240×g (Sorvall at 1200 rpm) for 12 min. at 4° C. with the brake on low.
c. The supernatant was removed by aspiration and the pooled pellet resuspended in 4-50 ml cold PBS (w/o Ca, Mg). It was then centrifuged at 240×g (Sorvall at 1200 rpm) for 6 min. at 4° C. with the brake on high.
a. The supernatant was aspirated and the pellet resuspended in 12 ml of cold cell culture-grade water. The pellet was titrated gently with a pipet for exactly 30 seconds then 4 ml of cold 0.6 M KCl was added. It was then QSed to 50 ml with cold PBS (w/o Ca, Mg) and centrifuged at 300×g (Sorvall TY 6000D at 1400 rpm) for 6 min. at 4° C. with the brake on high.
b. Step 2.a. was repeated once more.
a. The supernatant was aspirated and the cells were resuspended in 2.5 ml cold PBS (w/o Ca, Mg). The cell suspension was carefully layered over 3 ml Ficoll-Hypaque in a 15 ml polypropylene conical tube. It was then centrifuged at 400×g (Sorvall at 1900 rpm) for 30 min. at 4° C. with the brake on low.
b. Aspiration occurred down to the neutrophil pellet. The pellet was resuspended fin cold PBS (w/o Ca, Mg) and transferred to a 50 ml conical tube. It was then QSed to 50 ml with cold PBS (w/o Ca, Mg) and centrifuged at 300×g (Sorvall at 1400 rpm) for 6 min. at 4° C. with the brake on high.
d. The supernatant was aspirated and the pellet resuspended in 50 ml cold PBS (w/o Ca, Mg) and centrifuged at 300×g (Sorvall at 1400 rpm) for 6 min. with the brake on high.
e. The supernatant was aspirated and the neutrophil pellet resuspended in 4.0 ml cold PBS (w/o Ca, Mg). It was kept on ice. Trypan blue (10 μl) was diluted (1:40) and the cells were counted using a hemacytometer. The cell number and viability by Trypan […] exclusion were determined and the results recorded. The cells were diluted to 5.0×10^6 cells/ml with cold PBS-G (with Ca, Mg) prior to plating for the assay.
2. […] The suspension was centrifuged and the particles resuspended in 7 ml of PBS-G (with Ca, Mg)(18 mg/ml). It was stored on ice until used (briefly vortexed prior to pipetting).
4. PBS-G (10 μl) (with Ca, Mg) was added to the wells in a white 96 well plate.
6. The compound dilutions (10 μl) were added to the appropriate wells.
7. The cell prep was diluted to 5.0×10^6 cells/ml with PBS-G (with Ca, Mg) in a separate multipipette trough.
8. The neutrophil suspension (20 μl) was added to the appropriate wells.
9. The plate was incubated at 37° C. for three minutes.
10. Zymosan (10 μl of 18 mg/ml) was added to the appropriate wells.
11. The plate was read on the luminometer (Labsystems Luminoskan, Needham Heights, Mass.) for 14 min. at 37° C. on the kinetic mode and the results recorded using the software DeltaSoft.
12. The plate data was exported into Excel to determine percent of control and derive the means and standard deviations for the data. The IC50 was determined graphically from the data and plotted using SigmaPlot. For cases where one concentration (50 μM) was tested, percent inhibition was compared to that seen with 50 μM apocynin.
13. The results are set forth below in Table 1 as "Neutrophil Burst IC50 (Lucigenin)". The results for 50 μM inhibition in the single assay are reported as "Neutrophil Burst Screen Value (% @ 50 μM)".

[2] = molecular target: T1, Xanthine oxidase (Bos taurus, UniProt P80457); assay: Xanthine oxidase assay (superoxide by hypoxanthine/xanthine oxidase, Lucigenin); type: biochemical; details: hypoxanthine 150 μM, buttermilk xanthine oxidase, 37° C.
T1 construct: purchased Sigma x-1875; host or cells: buttermilk
T1 sequence (P80457 whole entry): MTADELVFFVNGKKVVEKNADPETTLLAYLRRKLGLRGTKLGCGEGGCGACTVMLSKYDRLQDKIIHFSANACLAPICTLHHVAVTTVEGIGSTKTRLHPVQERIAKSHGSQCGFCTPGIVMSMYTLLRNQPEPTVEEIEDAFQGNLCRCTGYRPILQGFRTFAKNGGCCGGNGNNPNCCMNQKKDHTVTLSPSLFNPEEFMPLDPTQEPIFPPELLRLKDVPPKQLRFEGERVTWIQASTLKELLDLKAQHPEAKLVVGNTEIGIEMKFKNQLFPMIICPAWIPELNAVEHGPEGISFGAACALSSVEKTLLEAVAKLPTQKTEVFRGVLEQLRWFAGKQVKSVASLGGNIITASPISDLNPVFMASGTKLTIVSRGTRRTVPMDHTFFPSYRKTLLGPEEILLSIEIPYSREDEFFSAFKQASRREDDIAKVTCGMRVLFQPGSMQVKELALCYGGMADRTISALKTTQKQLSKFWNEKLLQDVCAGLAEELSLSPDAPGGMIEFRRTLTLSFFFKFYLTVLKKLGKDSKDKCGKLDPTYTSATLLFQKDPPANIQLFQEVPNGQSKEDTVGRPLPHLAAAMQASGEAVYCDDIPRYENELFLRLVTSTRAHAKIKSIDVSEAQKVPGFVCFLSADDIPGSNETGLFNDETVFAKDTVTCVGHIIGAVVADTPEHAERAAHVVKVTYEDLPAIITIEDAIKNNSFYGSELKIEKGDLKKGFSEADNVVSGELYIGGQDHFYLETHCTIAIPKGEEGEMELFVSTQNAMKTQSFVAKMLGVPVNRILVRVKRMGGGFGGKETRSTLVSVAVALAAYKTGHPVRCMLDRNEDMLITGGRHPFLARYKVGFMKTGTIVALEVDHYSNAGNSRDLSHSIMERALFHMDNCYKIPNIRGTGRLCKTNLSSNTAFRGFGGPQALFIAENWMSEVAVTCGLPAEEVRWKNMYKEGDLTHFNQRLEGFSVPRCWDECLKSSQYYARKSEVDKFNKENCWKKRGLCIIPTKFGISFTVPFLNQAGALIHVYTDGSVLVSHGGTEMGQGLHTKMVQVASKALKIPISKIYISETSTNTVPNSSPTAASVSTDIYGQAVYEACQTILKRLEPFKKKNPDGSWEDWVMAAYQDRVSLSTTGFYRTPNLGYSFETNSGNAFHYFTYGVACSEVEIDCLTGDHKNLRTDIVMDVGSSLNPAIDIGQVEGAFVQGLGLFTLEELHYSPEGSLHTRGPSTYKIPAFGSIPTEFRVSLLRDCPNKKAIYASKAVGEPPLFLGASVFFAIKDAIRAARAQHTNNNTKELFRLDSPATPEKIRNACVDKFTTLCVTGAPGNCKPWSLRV

[3] = tested on: Jurkat cells; assay: Cytotoxicity assay employing Jurkat cells (MTT); type: cell-based; details: Jurkat clone E6-1, MTT, 37° C. overnight
Protocol: This Assay was performed as set forth in Hansen et al., Journal of Immunological Methods, 119:203-210 (19930; Mosmann, Journal of Immunological Methods, 65:55-63 (1983); and Slater et al., Biochem. Ciophys. Acta, 77:383 (1963); except as noted below.
Compounds from the following Examples were tested for cytotoxicity using MTT (i.e., 3-[4,5-Dimethylthiazol-2-yl]-2,5-diphenyltetrazolium bromide; Thiazolyl Blue (Sigma, St. Louis, Mo.)).
MTT was dissolved in basal culture media at a concentration of 5 mg/ml. If necessary, it was briefly warmed at 37° C. to fully dissolve, passed through a sterile filter, and aliquoted and stored at -20° C. until use.
The Extraction Buffer used was a solution composed of 20% SDS, 2.5% Acetic Acid (80% 6 stock solution), 2.5% 1N Hcl, 50% Dimethylformamide/50% dissolved in distilled water, SDS was dissolved into buffer components with gentle heating and stirring and the resultant solution was filtered and stored until use.
The MTT solution was added in an amount equal to 10% of the culture volume to each well in a 96-well plate containing 100,000 Jurkat cells/well.
The wells were then incubated for 0.5 to 2 hours in standard culture conditions. A volume of extraction buffer equal to the culture volume was added. The 96-well plate was then sealed. The formazan crystals were allowed to extract at 37° C. for four hours. The plate was read on a spectrophotometer [Spectramax 250, Molecular Devices, Sunnyvale, Calif.] at an absorbance wavelength of 560 nm. (The background absorbance measured at 650 nm was subtracted from the value measured at 560 nm.)
The Jurkat cells (Jurkat clone E6-1) were grown using standard conditions supplied by ATCC (American Type Culture Collection--Rockville, Md.).
The compounds diluted in medium (RPMI 1640 plus 10% fetal bovine serum) stock solution of 100 μM, then this stock solution was further diluted 3-fold before testing in the instant assay.
2-Hydroxy-3-methoxy-E-nitrostyrene tested at 100 μM as death control cells, incubated under the above conditions at 37° C. overnight.
The Extraction Buffer (100 μl) was added to each well and the resultant suspension was incubated 4 hours at 37° C.
The results from this procedure are set forth above in Table 1 in the column marked "Cytotox (MTT/Jurkat)". […] Toxicity was rated "3" if dead cells and >50% reduction in MTT absorbance at 1 μM test compound.

[4] = tested on: neutrophils; assay: Specificity: chemotaxis of neutrophils activated by f-Met-Leu-Phe; type: cell-based; details: 50 μM
Protocol: (§1) To assess specificity of action, the title compound (hereinafter "Azine") was tested for its ability to inhibit other functions of stimulated neutrophils and monocytes. The procedure followed was set forth in Mrowietz et al., British Journal of Dermatology, 127:382-386 (1992); Snyderman, Ralph, Methods for Studying Mononuclear Phagocytes, ed. Adams, Edelson, and Koren, New York, Academic Press, pp. 535-547 (1981); Sozzani et al., The Journal of Immunology, Oct. 1, 1991, pp. 2215-2221; Zigmond et al., The Journal of Experimental Medicine, 137:387 (1973); Wahl et al., Cell Immunol., 85:373 (1984); Wahl et al., Current Protocols in Immunology, ed. Coligan, Kruisbeek, Margulies, Shevach, and Strober, p. 7.6.1 (1991); Hogquist et al., J. Immunol, 147:2181 (1991). The Azine (50 μM) had no effect on chemotaxis of neutrophils activated by the chemotactic peptide f-Met-Leu-Phe.

[5] = tested on: monocytes (IL-1 secretion); assay: Specificity: secretion of IL-1 by monocytes; type: cell-based; details: 50 μM; LPS stimulated or unstimulated monocytes
Protocol: as §1

[6] = tested on: monocytes (TNF secretion); assay: Specificity: secretion of TNF by monocytes; type: cell-based; details: 50 μM; LPS stimulated or unstimulated monocytes
Protocol: as §1

[7] = 14 min, opsonized zymosan, lucigenin, 37° C.

Structure (SMILES) | IC50 [1, 7] | inhibition at 50 µM [1] | Xanthine Oxidase Inhibition IC50 (Integral) [2] | Cytotox (MTT/Jurkat) [3] | effect on chemotaxis of neutrophils [4] | inhibition of secretion of IL-1 [5] | inhibition of secretion of TNF [6] | IC50 ([2]; read-out: Xanthine Oxidase Inhibition IC50 (Integral)) | Neutrophil Burst IC50 (Lucigenin) ([1]; opsonized zymosan, lucigenin, 37° C., 14 min)
COc1cc(/C=N/N=C/c2ccc(O)c(OC)c2)ccc1O [C, Bis[4-hydroxy-3-methoxybenzaldehyde]-trans,trans-azine] | 4.9 µM | 85.6% | No Effect | 0 | no effect | did not inhibit | did not inhibit | – | –
COc1ccc(N=Cc2cc(OC)c(O)c(OC)c2)cc1 [Example 18, N-(3,5-Dimethoxy-4-Hydroxybenzylidene)-p-Methoxyaniline] | 5 µM | – | – | 0 | – | – | – | 32 µM | –
COc1cccc(/C=N/N=C/c2cccc(OC)c2O)c1O [A, Bis[3-methoxy-2-hydroxybenzaldehyde]trans,trans-azine] | – | 1.1% | No Effect | 0 | – | – | – | – | No Effect
COc1cc(/C=N/N=C/c2ccc(O)cc2)ccc1O [Example 10, N-[4-Hydroxy-3-Methoxybenzaldehyde]-N'-[4-Hydroxybenzaldehyde]trans,trans-Azine] | 8.5 µM | – | No Effect | 0 | – | – | – | – | –
